Results reported in US20230265151A1, “GIP/GLP1 CO-AGONIST COMPOUNDS” (priority 2020, published 2023).
Like-named read-outs stand apart in the source and are kept apart here.

Assays:
Format in all cases: cell-based
[1] = biological target: T1, hGIPR (Homo sapiens, UniProt P48546); assay: Functional cAMP formation (HTRF) in HEK-293 clonal cells expressing hGIPR, 0.1% bovine casein, without or with 1.0% human serum albumin; details: 37° C.; for Emax: percent of maximal response to GIP(1-42)NH2, read-out: hGIPR Emax, % ± SEM; for EC50: cAMP, 0.1% bovine casein (no human serum albumin), geometric mean, read-out: hGIPR EC50, nM (SEM, n)
T1 construct: expressed in transfected cells
T1 sequence (P48546 22-466): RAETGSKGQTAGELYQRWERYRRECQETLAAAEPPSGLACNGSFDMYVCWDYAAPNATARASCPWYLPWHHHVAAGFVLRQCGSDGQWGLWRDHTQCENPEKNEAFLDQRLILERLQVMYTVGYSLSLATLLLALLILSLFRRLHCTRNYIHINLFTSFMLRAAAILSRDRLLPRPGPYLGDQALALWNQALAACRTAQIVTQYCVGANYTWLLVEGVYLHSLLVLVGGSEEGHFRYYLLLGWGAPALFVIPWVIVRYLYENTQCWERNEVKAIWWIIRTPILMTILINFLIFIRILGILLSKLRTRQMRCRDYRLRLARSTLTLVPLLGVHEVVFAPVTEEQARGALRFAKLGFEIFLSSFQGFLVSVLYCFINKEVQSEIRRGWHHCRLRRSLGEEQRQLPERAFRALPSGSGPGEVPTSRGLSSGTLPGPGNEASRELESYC
Procedure, shortened: (§1)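 Cells were stimulated with peptide for 30 min at 37° C, then intracellular cAMP was measured by competitive HTRF (665/620 nm ratio) and converted to nM using a cAMP standard curve. Relative EC50 and Emax came from four-parameter logistic fits of percent maximal response against peptide concentration.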

[2] = biological target: hGLP-1R (Homo sapiens, UniProt P43220); assay: Functional cAMP formation (HTRF) in HEK-293 clonal cells expressing hGLP-1R, 0.1% bovine casein, without or with 1.0% human serum albumin; parameters: expressed in transfected cells; details: 37° C.; for EC50: geometric mean, read-out: hGLP-1R EC50, nM (SEM, n); for Emax: percent of maximal response to GLP-1(7-36)NH2, read-out: hGLP-1R Emax, % ± SEM
Chain of hGLP-1R (P43220 24-463): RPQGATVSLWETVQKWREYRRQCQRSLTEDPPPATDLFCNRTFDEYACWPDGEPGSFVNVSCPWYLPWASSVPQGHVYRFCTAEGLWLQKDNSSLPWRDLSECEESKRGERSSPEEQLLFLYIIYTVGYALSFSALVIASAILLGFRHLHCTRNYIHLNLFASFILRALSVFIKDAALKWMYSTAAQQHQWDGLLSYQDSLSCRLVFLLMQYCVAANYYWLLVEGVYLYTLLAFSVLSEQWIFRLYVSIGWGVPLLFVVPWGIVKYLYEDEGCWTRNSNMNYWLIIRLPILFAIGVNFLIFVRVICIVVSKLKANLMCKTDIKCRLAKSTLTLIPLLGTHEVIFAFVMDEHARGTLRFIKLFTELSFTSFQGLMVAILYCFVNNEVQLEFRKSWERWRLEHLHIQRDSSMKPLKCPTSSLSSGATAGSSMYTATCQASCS
Procedure, shortened: as §1

[3] = biological target: T2, hGCGR (Homo sapiens, UniProt P47871); assay: Functional cAMP formation (HTRF) in HEK-293 clonal cells expressing hGCGR, 0.1% bovine casein, without or with 1.0% human serum albumin; details: 37° C., geometric mean, read-out: hGCGR EC50, nM (SEM, n)
T2 construct: expressed in transfected cells
T2 sequence (P47871 26-477): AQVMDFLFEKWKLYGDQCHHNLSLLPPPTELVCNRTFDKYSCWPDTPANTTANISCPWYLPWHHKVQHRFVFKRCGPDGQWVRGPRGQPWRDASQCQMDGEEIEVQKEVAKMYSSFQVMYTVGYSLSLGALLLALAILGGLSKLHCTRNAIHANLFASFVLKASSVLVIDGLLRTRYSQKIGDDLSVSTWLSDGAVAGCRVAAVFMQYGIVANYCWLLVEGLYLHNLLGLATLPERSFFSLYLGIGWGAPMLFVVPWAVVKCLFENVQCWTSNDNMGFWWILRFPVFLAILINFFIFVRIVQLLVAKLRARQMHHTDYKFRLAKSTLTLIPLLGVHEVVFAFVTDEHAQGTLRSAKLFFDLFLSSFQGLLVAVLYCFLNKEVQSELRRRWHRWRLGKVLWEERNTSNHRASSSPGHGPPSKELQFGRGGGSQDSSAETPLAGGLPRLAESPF
Procedure, shortened: as §1

[4] = HEK293, 0.1% bovine casein and 1.0% human serum albumin
[5] = 0.1% bovine casein and 1.0% human serum albumin
[6] = cAMP, 0.1% bovine casein (no human serum albumin)
[7] = HEK293, cAMP, 0.1% bovine casein, arithmetic mean

CC[C@H](C)[C@H](NC(=O)[C@H](CC(C)C)NC(=O)[C@](C)(Cc1ccc(O)cc1)NC(=O)[C@@H](CCC(=O)O)NC(=O)[C@@H](NC(=O)[C@H](Cc1ccccc1)NC(=O)[C@H](CCCCNC(=O)COCCOCCNC(=O)COCCOCCNC(=O)CC[C@H](NC(=O)CCCCCCCCCCCCC(=O)O)C(=O)O)NC(=O)C(C)(C)NC(=O)[C@H](CCC(N)=O)NC(=O)[C@H](C)NC(=O)[C@H](CCCCNC(=O)COCCOCCNC(=O)COCCOCCNC(=O)CC[C@H](NC(=O)CCCCCCCCCCCCC(=O)O)C(=O)O)NC(=O)[C@H](CCCN)NC(=O)[C@H](CC(=O)O)NC(=O)[C@H](CC(C)C)NC(=O)[C@](C)(CC(C)C)NC(=O)[C@@H](NC(=O)[C@H](CO)NC(=O)[C@H](Cc1ccc2ccccc2c1)NC(=O)[C@H](CC(=O)O)NC(=O)[C@H](CO)NC(=O)[C@@H](NC(=O)[C@](C)(Cc1ccccc1F)NC(=O)[C@@H](NC(=O)CNC(=O)[C@H](CCC(=O)O)NC(=O)C(C)(C)NC(=O)[C@@H](N)Cc1ccc(O)cc1)[C@@H](C)O)[C@@H](C)O)[C@@H](C)CC)[C@@H](C)CC)C(=O)N[C@@H](CCC(=O)O)C(=O)NCC(=O)NCC(=O)N1CCC[C@H]1C(=O)N[C@@H](CO)C(=O)N[C@@H](CO)C(=O)NCC(=O)N[C@@H](C)C(=O)N1CCC[C@H]1C(=O)N1CCC[C@H]1C(=O)N1CCC[C@H]1C(=O)N[C@@H](CO)C(N)=O [Example 249]
Emax [1, 4]: 88.9% | EC50 [1]: 0.0201 nM | EC50 [2, 5]: 51.6 nM | EC50 [2, 6]: 0.3 nM | EC50 [3, 5]: > 9950 nM | EC50 [3, 6]: > 9950 nM

CC[C@H](C)[C@H](NC(=O)[C@H](CC(C)C)NC(=O)[C@](C)(Cc1ccc(O)cc1)NC(=O)[C@@H](CCC(=O)O)NC(=O)[C@@H](NC(=O)[C@H](Cc1ccccc1)NC(=O)[C@H](CCC(=O)O)NC(=O)C(C)(C)NC(=O)[C@H](CCC(N)=O)NC(=O)[C@H](C)NC(=O)[C@H](CCCCNC(=O)COCCOCCNC(=O)COCCOCCNC(=O)CC[C@H](NC(=O)CCCCCCCCCCCCC(=O)O)C(=O)O)NC(=O)[C@H](CCCN)NC(=O)[C@H](CC(=O)O)NC(=O)[C@H](CC(C)C)NC(=O)[C@](C)(CC(C)C)NC(=O)[C@@H](NC(=O)[C@H](CO)NC(=O)[C@H](Cc1ccc2ccccc2c1)NC(=O)[C@H](CC(=O)O)NC(=O)[C@H](CO)NC(=O)[C@@H](NC(=O)[C@](C)(Cc1ccccc1F)NC(=O)[C@@H](NC(=O)CNC(=O)[C@H](CCC(=O)O)NC(=O)C(C)(C)NC(=O)[C@@H](N)Cc1ccc(O)cc1)[C@@H](C)O)[C@@H](C)O)[C@@H](C)CC)[C@@H](C)CC)C(=O)N[C@@H](CCC(=O)O)C(=O)NCC(=O)NCC(=O)N1CCC[C@H]1C(=O)N[C@@H](CO)C(=O)N[C@@H](CO)C(=O)NCC(=O)N[C@@H](C)C(=O)N1CCC[C@H]1C(=O)N1CCC[C@H]1C(=O)N1CCC[C@H]1C(=O)N[C@@H](CO)C(=O)N[C@@H](CCCCNC(=O)COCCOCCNC(=O)COCCOCCNC(=O)CC[C@H](NC(=O)CCCCCCCCCCCCC(=O)O)C(=O)O)C(N)=O [Example 251]
Emax [1, 4]: 71.2% | EC50 [1]: 0.0305 nM | Emax [2, 7]: 99% | EC50 [2, 6]: 0.338 nM | EC50 [3, 5]: > 9950 nM | EC50 [3, 6]: > 9950 nM

CC[C@H](C)[C@H](NC(=O)[C@H](CCCN)NC(=O)[C@H](CC(=O)O)NC(=O)[C@H](CC(C)C)NC(=O)[C@](C)(CC(C)C)NC(=O)[C@@H](NC(=O)[C@H](CO)NC(=O)[C@H](Cc1ccc2ccccc2c1)NC(=O)[C@H](CC(=O)O)NC(=O)[C@H](CO)NC(=O)[C@@H](NC(=O)[C@](C)(Cc1ccccc1F)NC(=O)[C@@H](NC(=O)CNC(=O)[C@H](CCC(=O)O)NC(=O)C(C)(C)NC(=O)[C@@H](N)Cc1ccc(O)cc1)[C@@H](C)O)[C@@H](C)O)[C@@H](C)CC)C(=O)N[C@@H](C)C(=O)N[C@@H](CCC(N)=O)C(=O)NC(C)(C)C(=O)N[C@@H](CCC(=O)O)C(=O)N[C@@H](Cc1ccccc1)C(=O)N[C@H](C(=O)N[C@@H](CCCCNC(=O)COCCOCCNC(=O)COCCOCCNC(=O)CC[C@H](NC(=O)CCCCCCCCCCCCC(=O)O)C(=O)O)C(=O)N[C@@](C)(Cc1ccc(O)cc1)C(=O)N[C@@H](CC(C)C)C(=O)N[C@H](C(=O)N[C@@H](CCCCNC(=O)COCCOCCNC(=O)COCCOCCNC(=O)CC[C@H](NC(=O)CCCCCCCCCCCCC(=O)O)C(=O)O)C(=O)NCC(=O)NCC(=O)N1CCC[C@H]1C(=O)N[C@@H](CO)C(=O)N[C@@H](CO)C(=O)NCC(=O)N[C@@H](C)C(=O)N1CCC[C@H]1C(=O)N1CCC[C@H]1C(=O)N1CCC[C@H]1C(=O)N[C@@H](CO)C(N)=O)[C@@H](C)CC)[C@@H](C)CC [Example 252]
Emax [1, 4]: 87.2% | Emax [1, 7]: 109% | Emax [2, 4]: 115% | Emax [2, 7]: 115% | EC50 [2, 6]: 0.555 nM | EC50 [3, 5]: > 9950 nM | EC50 [3, 6]: > 9950 nM

CC[C@H](C)[C@H](NC(=O)[C@H](CCCN)NC(=O)[C@H](CC(=O)O)NC(=O)[C@H](CC(C)C)NC(=O)[C@](C)(CC(C)C)NC(=O)[C@@H](NC(=O)[C@H](CO)NC(=O)[C@H](Cc1ccc2ccccc2c1)NC(=O)[C@H](CC(=O)O)NC(=O)[C@H](CO)NC(=O)[C@@H](NC(=O)[C@](C)(Cc1ccccc1F)NC(=O)[C@@H](NC(=O)CNC(=O)[C@H](CCC(=O)O)NC(=O)C(C)(C)NC(=O)[C@@H](N)Cc1ccc(O)cc1)[C@@H](C)O)[C@@H](C)O)[C@@H](C)CC)C(=O)N[C@@H](C)C(=O)N[C@@H](CCC(N)=O)C(=O)NC(C)(C)C(=O)N[C@@H](CCCCNC(=O)COCCOCCNC(=O)COCCOCCNC(=O)CC[C@H](NC(=O)CCCCCCCCCCCCC(=O)O)C(=O)O)C(=O)N[C@@H](Cc1ccccc1)C(=O)N[C@H](C(=O)N[C@H](CCC(=O)O)C(=O)N[C@@](C)(Cc1ccc(O)cc1)C(=O)N[C@@H](CC(C)C)C(=O)N[C@H](C(=O)N[C@@H](CCCCNC(=O)COCCOCCNC(=O)COCCOCCNC(=O)CC[C@H](NC(=O)CCCCCCCCCCCCC(=O)O)C(=O)O)C(=O)NCC(=O)NCC(=O)N1CCC[C@H]1C(=O)N[C@@H](CO)C(=O)N[C@@H](CO)C(=O)NCC(=O)N[C@@H](C)C(=O)N1CCC[C@H]1C(=O)N1CCC[C@H]1C(=O)N1CCC[C@H]1C(=O)N[C@@H](CO)C(N)=O)[C@@H](C)CC)[C@@H](C)CC [Example 253]
Emax [1, 4]: 78.9% | Emax [2, 4]: 114% | Emax [2, 7]: 113% | EC50 [3, 5]: > 9950 nM | EC50 [3, 6]: > 9950 nM

CC[C@H](C)[C@H](NC(=O)[C@H](CCCN)NC(=O)[C@H](CC(=O)O)NC(=O)[C@H](CC(C)C)NC(=O)[C@](C)(CC(C)C)NC(=O)[C@@H](NC(=O)[C@H](CO)NC(=O)[C@H](Cc1ccc2ccccc2c1)NC(=O)[C@H](CC(=O)O)NC(=O)[C@H](CO)NC(=O)[C@@H](NC(=O)[C@](C)(Cc1ccccc1F)NC(=O)[C@@H](NC(=O)CNC(=O)[C@H](CCC(=O)O)NC(=O)C(C)(C)NC(=O)[C@@H](N)Cc1ccc(O)cc1)[C@@H](C)O)[C@@H](C)O)[C@@H](C)CC)C(=O)N[C@@H](C)C(=O)N[C@@H](CCC(N)=O)C(=O)NC(C)(C)C(=O)N[C@@H](CCCCNC(=O)COCCOCCNC(=O)COCCOCCNC(=O)CC[C@H](NC(=O)CCCCCCCCCCCCC(=O)O)C(=O)O)C(=O)N[C@@H](Cc1ccccc1)C(=O)N[C@H](C(=O)N[C@H](CCC(=O)O)C(=O)N[C@@](C)(Cc1ccc(O)cc1)C(=O)N[C@@H](CC(C)C)C(=O)N[C@H](C(=O)N[C@@H](CCC(=O)O)C(=O)NCC(=O)NCC(=O)N1CCC[C@H]1C(=O)N[C@@H](CO)C(=O)N[C@@H](CO)C(=O)NCC(=O)N[C@@H](C)C(=O)N1CCC[C@H]1C(=O)N1CCC[C@H]1C(=O)N1CCC[C@H]1C(=O)N[C@@H](CO)C(=O)N[C@@H](CCCCNC(=O)COCCOCCNC(=O)COCCOCCNC(=O)CC[C@H](NC(=O)CCCCCCCCCCCCC(=O)O)C(=O)O)C(N)=O)[C@@H](C)CC)[C@@H](C)CC [Example 254]
Emax [1, 4]: 68.5% | Emax [1, 7]: 98.2% | Emax [2, 4]: 122% | EC50 [3, 5]: > 9950 nM | EC50 [3, 6]: > 9950 nM
